According to patent US11505574B2, “Modulation of P53 for the treatment of cancer” (THE REGENTS OF THE UNIVERSITY OF CALIFORNIA, priority 2016, dated 2022):

Key:
HaCaT cells = assay: HaCaT cell colony formation assay; type: cell-based; conditions: HaCaT cells (mutant p53); 10 μM for 20 minutes then 0.5 ng/mL doxorubicin 18 hours (FIG. 37D)
Description: For the experiments shown in FIG. 37D, HaCaT and MiaPaCa2 cells were grown in 6-well plates at 500 cells per well. The following day, 10 μM Pen-Ctrl (SEQ ID NO:10), Pen-Pep23 (SEQ ID NO:9), or Pen-Pep8 (SEQ ID NO:50) were added to the cells for 20 minutes followed by treatment with 0.5 ng/mL doxorubicin (for HaCaT cells) or 0.25 ng/mL doxorubicin (for miaPaCa2 cells) for 18 hours, then the media was changed to fresh DMEM. After colonies formed they were fixed (i.e., using 7:1 MeOH:glacial acetic acid) and stained with crystal violet.

MCF7 tumor spheres = assay: MCF7 tumor sphere assay; type: cell-based, human; conditions: MCF7 cells; 5 μM; 6.25 ng/mL doxorubicin; 7 days (FIGS. 34E, 34F)
Description: For the experiments shown in FIG. 34E, MCF7 cells were plated at a density of 20,000 cells per well using 2 mL Mammocult media in 6-well ultra-low adherent plates. The following day, cells were treated with Pen-Ctrl or Pen-Pep8 at a concentration of 5 μM. Peptides were added to each well for 20 minutes followed by 6.25 ng/mL doxorubicin. Cells were grown for 7 days and then the number of tumor spheres that were larger than 50 μm in diameter were counted (i.e., 20 10× photos were randomly taken and tumor spheres counted from the digital photos). For the graph shown in FIG. 34F, statistical analysis was performed using the student's t-test (n=3; *p≤0.05).
For the experiments shown in FIG. 36C, MCF7 cells were plated at a density of 20,000 cells per well using 2 mL Mammocult media in 6-well ultra-low adherent plates. The following day, cells were treated with 150 nM Cyc-Ctrl or Cyc-Pep8 (SEQ ID NO:5). 150 nM Cyc-Ctr/Pep8 was incubated in 100 μL serum-free DMEM with 3 μg PEP1 for 25 minutes before being added to the cells. After 20 minutes, 3.125 ng/mL doxorubicin was added to the cells for 7 days. Cells were grown for 7 days and then tumor spheres were counted that were larger than 50 μm in diameter (i.e., 20 10× photos were randomly taken and tumor spheres were counted from the digital photos).

RKO tumor xenograft = RKO tumor xenograft model in nude mice; type: in vivo
Description: 6-week-old female nude mice were used for the xenograft study (FIG. 35A). 1×10^6 RKO cells in a 1:1 mixture of matrigel:DMEM (serum-free) were injected into the right flank of the nude mice. After tumors had grown to a size of about 100 mm^3, treatment with either Pen-Ctrl or Pen-Pep8 (5 μM in 50 μL sterile PBS) was administered by intratumoral injection every 2 days for 2 weeks. After treatment, the animals were sacrificed and tumors were excised, measured, and weighed followed by being flash frozen (n=6 for each group). Xenograft volume over the course of treatment and final tumor weight after the animals were sacrificed are shown in FIGS. 35B and 35C, respectively. Furthermore, pieces of the frozen xenografts were cut using a sterile scalpel and then the tumor tissue was lysed and lysate was run on a 10% SDS-PAGE gel followed by Western blotting for Puma, p53, and actin.

p53 = assay: Western blot for p53 and downstream targets in RKO cells treated with peptides; type: cell-based, human; conditions: RKO cells
p53 (mutant) = assay: Western blot for mutant p53 in miaPaCa2 cells treated with Pen-Pep8; type: cell-based; conditions: 2.5 μM for 30 minutes then 6.25 ng/mL doxorubicin 18 hours (FIG. 37C)
Description: For the experiments shown in FIG. 37C, 2×10^5 miaPaCa2 cells per well were plated the day before in a 6-well plate. The following day, the cells were treated with 2.5 μM Pen-Ctrl (SEQ ID NO:10) or Pen-Pep8 (SEP ID NO:50) for 30 minutes then treated with 6.25 ng/mL doxorubicin for 18 hours. The following the day, the cells were harvested with 350 μL 1×SDS-lysis buffer and 20 μL of lysate was loaded per well onto a 10% SDS-PAGE gel followed by Western blot for total eIF4E, p-eIF4E (Ser209), p53 (mutant), and actin.

## RQIKIWFQNRRMKWKKYPYAASPA [Pen-Pep8, Penetratin fused to Pep8]
HaCaT cells
  colony formation, sensitization to low-dose doxorubicin: sensitized to low-dose doxorubicin
MCF7 tumor spheres
  number of tumor spheres larger than 50 μm in diameter, sensitization to low dose doxorubicin: sensitized cells to low dose doxorubicin
RKO tumor xenograft; female nude mice, 5 μM in 50 μL PBS, intratumoral injection every 2 days for 2 weeks, versus Pen-Ctrl (FIGS. 35A-35C)
  RKO tumor cell growth in a xenograft model (tumor volume, tumor weight): inhibited RKO tumor cell growth
RKO tumor xenograft; lysate from RKO xenograft tumors after treatment, versus Pen-Ctrl (FIG. 35D)
  p53 and Puma protein expression in xenograft tumors (Western blot): increased p53 protein expression, as well as its target, Puma
p53; 1.5 μM for 20 minutes then 0.125 ng/mL etoposide 18 hours (FIG. 34I)
  sensitization to low-dose etoposide (p53 Western blot): also to low-dose etoposide
p53; 1.5 μM for 20 minutes then 6.25 ng/mL doxorubicin 18 hours (FIG. 34I)
  sensitization to low-dose doxorubicin (p53 Western blot): sensitized to low-dose doxorubicin
p53; 2.5 μM for 20 minutes then 6.25 ng/mL doxorubicin 18 hours (FIG. 34A)
  p53 expression with low dose doxorubicin (Western blot): robust p53 expression
p53; 2.5 μM, 18 hours (FIG. 32B)
  p53 expression (Western blot): induced p53 expression
p53 (mutant)
  mutant p53 expression (Western blot): decreased mutant p53 expression
